Test results from PMC9502404, “The Strong Anti-Tumor Effect of Smp24 in Lung Adenocarcinoma A549 Cells Depends on Its Induction of Mitochondrial Dysfunctions and ROS Accumulation” (Toxins, 2022).
Where no end group is shown, it is not given here.

Experiments:
[1] = test system: A549 cells; experiment: MTT cell viability and proliferation assay; type: cell-based, human; settings: Smp24 1.25-20 μM, 12, 24 and 48 h tested, time of the IC50 not stated, triplicate, consistent with ref 10
Protocol: Cellular viability was analyzed via MTT method as reported in our previous study. Briefly, A549 cells (1 × 10^4 cells/well) were cultured in 96-well plates and treated with a gradient concentration of Smp24 (1.25–20 μM) at different time intervals (12, 24, and 48 h). A549 cells were pre-incubated with different inhibitors including 40 μΜ Nec-1, 40 μM Z-DEVD-FMK, 40 μM Z-VAD-FMK, and 2 mM NAC for 30 min before 5 μM Smp24 was incubated with the cells for 12 h to investigate the responsibility of different signaling pathways in the cytotoxic effects of Smp24. After incubation, 10 µL MTT (5 mg/mL) was then added and incubated for 4 h at 37 °C in the dark. Subsequently, 200 µL DMSO was applied into each well after discarding the cell medium, and the cell viability was estimated by calculating the absorbance value at 490 nm via a microplate reader (Tecan Company, Männedorf, Switzerland). The experiments were performed in triplicate.

[2] = test system: MRC-5; experiment: MTT cell viability assay, normal cells; type: cell-based; settings: time not stated, MRC-5 not described in methods

IWSFLIKAATKLLPSLFGGGKKDS [Smp24]
IC50 [1]: ~4.06 µM | IC50 [2]: ~14.7 µM
